Reference: PMC8634903, “Effects of Dicyclohexyl Phthalate Exposure on PXR Activation and Lipid Homeostasis in Mice” (Environmental Health Perspectives, 2021)
pIC50: −log10 of the molar value.

How the values were obtained:
[1] = biological target: T1, pregnane X receptor (hPXR) (Homo sapiens, UniProt O75469); experiment: LanthaScreen TR-FRET competitive binding assay with recombinant GST-hPXR LBD; also cell reporter assay (EC50 […])
T1 construct: gene NR1I2
T1 sequence (O75469 130-434 limits assumed): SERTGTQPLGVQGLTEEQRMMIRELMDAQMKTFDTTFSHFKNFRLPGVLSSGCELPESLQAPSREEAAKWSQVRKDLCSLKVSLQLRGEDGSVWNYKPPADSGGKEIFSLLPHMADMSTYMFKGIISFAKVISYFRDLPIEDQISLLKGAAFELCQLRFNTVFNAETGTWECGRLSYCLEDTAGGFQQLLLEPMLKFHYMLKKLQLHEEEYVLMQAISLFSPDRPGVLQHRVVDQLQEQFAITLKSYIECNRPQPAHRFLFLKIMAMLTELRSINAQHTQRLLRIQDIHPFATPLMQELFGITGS

[2] = biological target: T2, rat pregnane X receptor (rPXR) (Rattus norvegicus, UniProt Q9R1A7); experiment: GAL4-LBD luciferase reporter assay in LS180 cells at […] DCHP; assay type: cell-based
T2 construct: gene Nr1i2
T2 sequence (Q9R1A7 143-431 limits assumed): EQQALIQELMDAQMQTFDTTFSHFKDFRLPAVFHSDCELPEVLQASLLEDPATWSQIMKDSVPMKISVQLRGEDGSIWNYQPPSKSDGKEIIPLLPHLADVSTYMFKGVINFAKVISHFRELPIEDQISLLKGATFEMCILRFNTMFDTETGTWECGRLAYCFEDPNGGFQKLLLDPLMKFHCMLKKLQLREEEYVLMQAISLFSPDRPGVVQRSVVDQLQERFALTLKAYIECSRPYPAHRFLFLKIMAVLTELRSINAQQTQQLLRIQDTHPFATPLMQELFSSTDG

[3] = biological target: T1, pregnane X receptor (hPXR); experiment: LanthaScreen TR-FRET competitive binding assay with recombinant GST-hPXR LBD (positive control); also cell reporter assay

Compound | pIC50 [1] | GAL4-LBD luciferase reporter assay in LS180 cells at 10 μM DCHP [2] | LanthaScreen TR-FRET competitive binding assay with recombinant GST-hPXR LBD (po) [3]
O=C(OC1CCCCC1)c1ccccc1C(=O)OC1CCCCC1 [DCHP, dicyclohexyl phthalate] | 5.14 | DCHP activated three forms of PXR including hPXR, mPXR, and rat PXR (rPXR) | 
CCCCC(CC)COC(=O)c1ccccc1C(=O)OCC(CC)CCCC (stereo not drawn) [DEHP, di(2-ethylhexyl) phthalate] |  |  | inhibition of FRET between fluorescein-labeled PXR ligand and recombinant GST-PXR LBD by DCHP and DEHP
